Laboratory results reported in PMC3412276 (Molecular Microbiology, 2012).

Molecular target: T1, TbPMI (phosphomannose isomerase) (Trypanosoma brucei, UniProt Q381V7)
T1 construct: gene Tb11.01.6410
T1 sequence (Q381V7 1-409): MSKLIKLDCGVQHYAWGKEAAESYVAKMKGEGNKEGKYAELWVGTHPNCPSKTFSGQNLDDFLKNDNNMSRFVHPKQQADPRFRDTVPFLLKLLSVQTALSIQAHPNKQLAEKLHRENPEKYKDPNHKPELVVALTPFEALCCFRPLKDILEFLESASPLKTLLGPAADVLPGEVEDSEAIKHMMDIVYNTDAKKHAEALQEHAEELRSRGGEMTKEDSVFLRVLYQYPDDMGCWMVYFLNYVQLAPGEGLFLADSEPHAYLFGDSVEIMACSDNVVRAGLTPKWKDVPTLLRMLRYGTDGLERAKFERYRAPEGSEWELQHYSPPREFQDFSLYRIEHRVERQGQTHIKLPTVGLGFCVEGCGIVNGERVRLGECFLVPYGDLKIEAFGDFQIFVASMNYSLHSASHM
Test: HPAEC with pulsed amperiometric detection
Assay type: biochemical
Conditions: 0.25 mM sugar-6P, 2 mM bis-tris propane pH 7.3, 2.5 mM MgCl2, 37°C, 15 min

| SMILES | HPAEC with pulsed amperiometric detection (converted to Man-6P) | HPAEC with pulsed amperiometric detection (converted to Fru-6P) |
| --- | --- | --- |
| O=P(O)(O)OC[C@H]1OC(O)(CO)[C@@H](O)[C@@H]1O (some centres unmarked) [Fru-6P] | to be able to convert Man-6P to Fru-6P and Fru-6P to Man-6P, as expected |  |
| O=P(O)(O)OC[C@H]1OC(O)[C@@H](O)[C@@H](O)[C@@H]1O (some centres unmarked) [Man-6P] |  | to be able to convert Man-6P to Fru-6P and Fru-6P to Man-6P, as expected |
